Assay results published in ChEMBL document CHEMBL1201862, “PubChem BioAssay data set” (2004).
Activity calls are given as the source filed them.

How the values were obtained:
[1] = target: FAD-linked sulfhydryl oxidase ALR (Homo sapiens, UniProt P55789); assay: ALR-catalysed DTT oxidation blockers – biochemical, H2O2 detection, luminescence, cherry-pick, dose response (AID 493248)
[2] = target: T1, Aminopeptidase N (Plasmodium falciparum FcB1/Columbia, UniProt O96935); assay: malaria alanyl aminopeptidase activity blockers – biochemical, fluorogenic H-Leu-NHMec substrate, 1536-well (AID 1445); design: species or system Plasmodium falciparum 3D7, 3D7
T1 sequence (O96935 whole entry): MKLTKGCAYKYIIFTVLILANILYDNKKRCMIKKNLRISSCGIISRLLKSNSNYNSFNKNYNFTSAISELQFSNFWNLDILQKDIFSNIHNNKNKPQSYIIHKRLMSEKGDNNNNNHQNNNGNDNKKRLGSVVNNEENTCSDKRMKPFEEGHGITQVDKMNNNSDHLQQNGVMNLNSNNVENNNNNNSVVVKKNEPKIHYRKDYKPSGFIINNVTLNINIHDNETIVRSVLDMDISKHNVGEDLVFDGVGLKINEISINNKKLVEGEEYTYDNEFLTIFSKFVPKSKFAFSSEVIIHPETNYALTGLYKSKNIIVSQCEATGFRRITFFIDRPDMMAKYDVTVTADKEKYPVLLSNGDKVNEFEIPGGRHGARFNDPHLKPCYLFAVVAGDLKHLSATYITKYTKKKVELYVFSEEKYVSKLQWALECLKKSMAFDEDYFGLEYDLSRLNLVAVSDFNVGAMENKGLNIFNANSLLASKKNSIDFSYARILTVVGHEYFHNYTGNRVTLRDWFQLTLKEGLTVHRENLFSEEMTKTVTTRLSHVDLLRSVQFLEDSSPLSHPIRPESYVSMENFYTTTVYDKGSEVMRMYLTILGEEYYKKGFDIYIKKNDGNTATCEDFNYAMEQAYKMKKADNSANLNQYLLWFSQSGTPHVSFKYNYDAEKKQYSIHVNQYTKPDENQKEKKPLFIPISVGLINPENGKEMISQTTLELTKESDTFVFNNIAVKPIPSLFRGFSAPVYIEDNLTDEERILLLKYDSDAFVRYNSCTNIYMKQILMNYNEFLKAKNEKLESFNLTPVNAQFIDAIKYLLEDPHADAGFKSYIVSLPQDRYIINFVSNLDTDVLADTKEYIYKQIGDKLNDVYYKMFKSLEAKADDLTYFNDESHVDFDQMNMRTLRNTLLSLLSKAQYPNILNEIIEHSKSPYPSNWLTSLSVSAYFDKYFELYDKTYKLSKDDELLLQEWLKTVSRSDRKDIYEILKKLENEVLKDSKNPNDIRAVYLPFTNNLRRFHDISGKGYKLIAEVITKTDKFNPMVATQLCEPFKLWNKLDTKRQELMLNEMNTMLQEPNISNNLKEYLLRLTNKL

[3] = target: Nonstructural protein 1 (Influenza A virus, UniProt Q194T2); type: functional, Influenza A virus (A/California/07/2009(H1N1))
Nonstructural protein 1, sequence (Q194T2 whole entry): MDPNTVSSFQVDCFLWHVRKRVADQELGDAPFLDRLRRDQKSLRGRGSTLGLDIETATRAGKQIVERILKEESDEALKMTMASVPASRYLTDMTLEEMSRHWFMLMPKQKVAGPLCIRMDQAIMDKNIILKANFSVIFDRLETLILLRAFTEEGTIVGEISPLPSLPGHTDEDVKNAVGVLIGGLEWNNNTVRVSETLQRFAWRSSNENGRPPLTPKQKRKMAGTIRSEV

[4] = target: T2, Leucine aminopeptidase (Plasmodium falciparum 3D7, UniProt Q8IL11); assay: P. falciparum M17LAP inhibitors, primary screen, biochemical, fluorogenic H-Leu-NHMec substrate, 1536-well (AID 1619); type: functional
T2 sequence (Q8IL11 whole entry): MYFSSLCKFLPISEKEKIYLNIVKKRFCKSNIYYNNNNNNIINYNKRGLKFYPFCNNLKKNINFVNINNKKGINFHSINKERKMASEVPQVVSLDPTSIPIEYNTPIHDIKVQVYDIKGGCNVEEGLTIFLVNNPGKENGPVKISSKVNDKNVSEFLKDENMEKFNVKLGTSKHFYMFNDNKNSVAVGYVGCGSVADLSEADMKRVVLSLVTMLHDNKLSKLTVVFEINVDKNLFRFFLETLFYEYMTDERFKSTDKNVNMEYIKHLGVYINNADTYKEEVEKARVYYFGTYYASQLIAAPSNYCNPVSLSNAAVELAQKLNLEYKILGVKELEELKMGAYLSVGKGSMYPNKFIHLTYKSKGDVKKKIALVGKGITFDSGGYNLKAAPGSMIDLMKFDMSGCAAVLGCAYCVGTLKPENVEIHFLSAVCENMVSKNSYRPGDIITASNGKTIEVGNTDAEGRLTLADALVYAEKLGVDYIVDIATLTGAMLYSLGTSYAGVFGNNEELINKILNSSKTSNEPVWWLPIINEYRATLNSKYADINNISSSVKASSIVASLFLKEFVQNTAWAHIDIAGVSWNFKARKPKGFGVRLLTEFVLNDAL

[5] = target: Genome polyprotein (dengue virus type 2, UniProt P29990); assay: flavivirus cap methylation enzyme inhibition – biochemical, confirmation dose response, primary screen (AID 588689); type: functional
Genome polyprotein, sequence (P29990 2492-3391 limits assumed): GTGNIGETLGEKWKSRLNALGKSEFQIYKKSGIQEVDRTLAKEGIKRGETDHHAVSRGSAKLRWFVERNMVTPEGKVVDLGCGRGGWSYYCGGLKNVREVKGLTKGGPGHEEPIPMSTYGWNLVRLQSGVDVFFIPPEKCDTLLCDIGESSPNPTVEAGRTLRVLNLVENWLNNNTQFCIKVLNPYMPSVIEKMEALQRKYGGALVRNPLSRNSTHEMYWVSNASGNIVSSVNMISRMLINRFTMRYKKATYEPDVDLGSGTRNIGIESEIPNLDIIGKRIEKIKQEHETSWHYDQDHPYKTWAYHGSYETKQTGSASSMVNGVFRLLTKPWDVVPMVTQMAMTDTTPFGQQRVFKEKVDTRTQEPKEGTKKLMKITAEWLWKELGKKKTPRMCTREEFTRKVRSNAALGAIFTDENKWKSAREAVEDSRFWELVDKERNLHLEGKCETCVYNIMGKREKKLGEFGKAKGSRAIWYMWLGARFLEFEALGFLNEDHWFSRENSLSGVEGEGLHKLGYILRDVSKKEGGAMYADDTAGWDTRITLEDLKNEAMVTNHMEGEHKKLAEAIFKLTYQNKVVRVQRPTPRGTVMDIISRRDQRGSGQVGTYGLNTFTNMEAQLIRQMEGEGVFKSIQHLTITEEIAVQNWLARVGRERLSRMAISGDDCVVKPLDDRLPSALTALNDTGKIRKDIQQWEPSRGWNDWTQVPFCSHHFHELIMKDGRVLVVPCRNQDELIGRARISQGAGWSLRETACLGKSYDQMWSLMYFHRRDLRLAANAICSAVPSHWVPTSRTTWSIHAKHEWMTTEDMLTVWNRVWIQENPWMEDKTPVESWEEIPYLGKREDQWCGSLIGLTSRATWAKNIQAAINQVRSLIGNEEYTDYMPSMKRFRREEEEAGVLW

[6] = target: Induced myeloid leukemia cell differentiation protein Mcl-1 (Homo sapiens, UniProt Q07820); type: functional
Induced myeloid leukemia cell differentiation protein Mcl-1, sequence (Q07820 whole entry): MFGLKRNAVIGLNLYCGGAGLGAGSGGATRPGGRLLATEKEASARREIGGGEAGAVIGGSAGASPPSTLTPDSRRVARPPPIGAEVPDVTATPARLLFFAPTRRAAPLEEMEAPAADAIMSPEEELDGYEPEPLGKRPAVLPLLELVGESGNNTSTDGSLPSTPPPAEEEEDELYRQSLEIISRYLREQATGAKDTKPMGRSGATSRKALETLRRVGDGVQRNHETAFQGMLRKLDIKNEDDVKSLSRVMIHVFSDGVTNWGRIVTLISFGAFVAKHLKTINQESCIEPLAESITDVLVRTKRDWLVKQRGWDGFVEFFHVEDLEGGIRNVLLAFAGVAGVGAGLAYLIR

[7] = target: T3, Short transient receptor potential channel 4 (Mus musculus, UniProt Q9QUQ5); assay: block of DAMGO-driven TRPC4 calcium entry – cell-based, HEK293 TRPC4/mu-opioid, Fluo-4 calcium, dose response (AID 434942); type: functional;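 also: potency of inhibitors blocking the TRPC4 calcium response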
T3 sequence (Q9QUQ5 whole entry): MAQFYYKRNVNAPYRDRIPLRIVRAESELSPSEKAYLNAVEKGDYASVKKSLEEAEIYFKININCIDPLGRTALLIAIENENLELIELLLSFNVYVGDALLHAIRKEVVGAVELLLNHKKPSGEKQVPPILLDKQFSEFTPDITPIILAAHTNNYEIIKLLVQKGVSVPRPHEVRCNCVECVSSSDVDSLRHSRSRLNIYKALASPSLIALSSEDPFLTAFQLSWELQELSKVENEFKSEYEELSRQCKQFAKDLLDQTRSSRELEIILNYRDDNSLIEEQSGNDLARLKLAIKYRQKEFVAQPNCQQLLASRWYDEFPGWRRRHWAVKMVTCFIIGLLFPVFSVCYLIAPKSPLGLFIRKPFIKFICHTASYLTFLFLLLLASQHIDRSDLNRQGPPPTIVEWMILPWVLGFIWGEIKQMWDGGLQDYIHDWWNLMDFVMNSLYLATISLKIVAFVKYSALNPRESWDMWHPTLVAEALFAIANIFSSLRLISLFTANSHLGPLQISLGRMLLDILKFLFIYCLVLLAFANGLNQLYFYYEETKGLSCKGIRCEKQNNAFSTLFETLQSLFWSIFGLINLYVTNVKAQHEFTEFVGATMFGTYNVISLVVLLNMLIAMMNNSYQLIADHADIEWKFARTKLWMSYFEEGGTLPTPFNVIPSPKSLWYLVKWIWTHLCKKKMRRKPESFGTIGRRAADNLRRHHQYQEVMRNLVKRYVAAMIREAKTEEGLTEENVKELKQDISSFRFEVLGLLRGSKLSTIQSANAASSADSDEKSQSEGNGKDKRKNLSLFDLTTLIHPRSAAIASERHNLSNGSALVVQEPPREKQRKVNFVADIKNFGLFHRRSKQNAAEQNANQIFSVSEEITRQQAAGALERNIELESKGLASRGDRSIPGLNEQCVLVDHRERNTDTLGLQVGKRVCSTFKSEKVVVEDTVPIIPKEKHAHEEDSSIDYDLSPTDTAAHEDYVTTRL

[8] = target: T4, Corticotropin-releasing factor receptor 2/Corticotropin-releasing factor-binding protein (Homo sapiens, UniProt P24387+Q13324); assay: activators of CRF receptor 2 with binding protein – uHTS hits, confirmation (AID 602473); type: functional; conditions: read-out: EC50_Mean
T4 sequence (Q13324 whole entry): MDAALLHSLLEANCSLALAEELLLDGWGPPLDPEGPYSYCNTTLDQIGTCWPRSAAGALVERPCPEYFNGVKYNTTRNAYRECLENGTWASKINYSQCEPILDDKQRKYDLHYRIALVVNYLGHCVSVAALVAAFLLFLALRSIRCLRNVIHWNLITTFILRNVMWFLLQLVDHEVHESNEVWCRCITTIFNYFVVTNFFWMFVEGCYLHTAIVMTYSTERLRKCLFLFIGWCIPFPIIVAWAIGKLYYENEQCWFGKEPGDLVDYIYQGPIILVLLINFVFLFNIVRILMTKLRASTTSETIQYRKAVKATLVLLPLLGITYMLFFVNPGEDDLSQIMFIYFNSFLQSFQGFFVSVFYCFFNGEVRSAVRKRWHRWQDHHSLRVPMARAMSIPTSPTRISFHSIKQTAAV
T4 sequence (P24387 whole entry): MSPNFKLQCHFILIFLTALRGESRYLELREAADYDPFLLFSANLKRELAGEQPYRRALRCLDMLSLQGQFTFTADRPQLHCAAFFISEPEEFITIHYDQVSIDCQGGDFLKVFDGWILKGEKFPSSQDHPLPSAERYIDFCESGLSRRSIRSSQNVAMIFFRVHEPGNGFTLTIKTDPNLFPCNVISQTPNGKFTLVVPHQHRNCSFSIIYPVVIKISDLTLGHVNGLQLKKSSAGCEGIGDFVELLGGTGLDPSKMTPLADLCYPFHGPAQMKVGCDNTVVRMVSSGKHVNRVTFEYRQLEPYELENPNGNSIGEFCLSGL

[9] = target: T4, Corticotropin-releasing factor receptor 2/Corticotropin-releasing factor-binding protein; assay: Dose Response confirmation of uHTS hits for small molecule antagonists of the CRF-binding protein and CRF-R2 receptor complex.; type: functional; conditions: read-out: IC50_Mean
[10] = target: T5, Rac GTPase-activating protein 1 (Homo sapiens, UniProt Q9H0H5); assay: blockers of MgcRacGAP-driven Rac1 GTP hydrolysis – biochemical, ADP Hunter fluorescence, primary and confirmatory, confirmation (AID 624330); type: functional
T5 sequence (Q9H0H5 whole entry): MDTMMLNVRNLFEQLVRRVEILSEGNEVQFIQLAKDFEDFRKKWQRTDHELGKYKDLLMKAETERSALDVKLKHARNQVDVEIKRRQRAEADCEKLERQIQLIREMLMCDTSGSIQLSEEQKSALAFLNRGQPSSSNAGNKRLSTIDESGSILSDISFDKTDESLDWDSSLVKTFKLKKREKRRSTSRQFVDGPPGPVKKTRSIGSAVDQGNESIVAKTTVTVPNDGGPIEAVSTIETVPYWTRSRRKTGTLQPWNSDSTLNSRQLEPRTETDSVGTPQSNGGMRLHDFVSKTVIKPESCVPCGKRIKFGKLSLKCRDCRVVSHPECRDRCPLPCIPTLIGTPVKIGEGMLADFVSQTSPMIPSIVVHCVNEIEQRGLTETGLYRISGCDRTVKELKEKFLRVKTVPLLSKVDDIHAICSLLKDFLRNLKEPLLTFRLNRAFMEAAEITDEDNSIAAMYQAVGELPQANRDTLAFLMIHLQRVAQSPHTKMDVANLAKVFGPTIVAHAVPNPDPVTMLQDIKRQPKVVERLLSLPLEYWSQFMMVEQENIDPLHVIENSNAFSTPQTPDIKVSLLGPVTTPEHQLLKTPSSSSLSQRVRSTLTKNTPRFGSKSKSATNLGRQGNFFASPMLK

FAD-linked sulfhydryl oxidase ALR, sequence (P55789 whole entry): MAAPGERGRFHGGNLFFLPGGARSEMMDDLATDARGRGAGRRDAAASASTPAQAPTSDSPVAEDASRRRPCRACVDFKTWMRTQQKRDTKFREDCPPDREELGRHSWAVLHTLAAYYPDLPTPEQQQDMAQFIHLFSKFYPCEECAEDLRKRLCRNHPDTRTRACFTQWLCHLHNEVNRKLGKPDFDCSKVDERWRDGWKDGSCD

Structure (SMILES)	AC50 [1]	EC50 [7]	also measured
C/C(=N/NS(=O)(=O)c1ccc(Br)cc1)c1ccc(C)o1	15.4 µM (active)		
COc1ccc(NC(=S)NNc2ccc(S(=O)(=O)Nc3ccccc3C(=O)O)cc2[N+](=O)[O-])cc1			IC50 [2]: 4.17 µM (active); IC50 [3]: 31.7 µM (active); IC50 [4]: 4.33 µM (active); IC50 [5]: 15.8 µM (active); IC50 [6]: 3.37 µM (not active)
COc1ccccc1CNCc1ccc(OC)c2ccccc12		5.31 µM (active)	
CCN(CC)c1ccc(NC(=O)CN2CCN(CC(=O)Nc3ccccc3F)CC2)cc1	1.18 µM (active)		
CC(NC(=O)c1cccc(N(C)C)c1)c1ccc(-n2ccnc2)cc1 (configuration not stated)	9.59 µM (active)		
CCc1cc(C(=O)c2ccc(OC)cc2)c(NC(=O)CC(C)(C)CC(=O)O)s1	4.26 µM (active)		
CC(CN(C)C)CN1c2ccccc2Sc2ccccc21 (configuration not stated)	1.25 µM (active)		
c1ccc2c(c1)nnn2-c1ncnc2sc3c(c12)CCCC3		6.68 µM (active)	EC50 [8]: > 53 µM (inactive); IC50 [9]: > 47.1 µM (inactive)
COc1ccccc1N(C(=O)c1snc(C(N)=O)c1N)C(C(=O)NCc1ccccc1)c1ccc(C)o1 (configuration not stated)		0.944 µM (active)	
O=C(Nc1ccc(O)cc1)c1ccc(C(=O)c2ccccc2)o1	2.25 µM (active)		IC50 [10]: 19.5 µM (active)
